The target in assay [1] is T1, P1R-DelNt (truncated human P1R deleted for residues 24-181) (Homo sapiens, UniProt Q03431).
T1 construct: expressed in transfected cells; host or cells: COS-7 (transient transfection, FuGENE 6)
T1 sequence (Q03431 with tags, fused parts or gaps limits assumed): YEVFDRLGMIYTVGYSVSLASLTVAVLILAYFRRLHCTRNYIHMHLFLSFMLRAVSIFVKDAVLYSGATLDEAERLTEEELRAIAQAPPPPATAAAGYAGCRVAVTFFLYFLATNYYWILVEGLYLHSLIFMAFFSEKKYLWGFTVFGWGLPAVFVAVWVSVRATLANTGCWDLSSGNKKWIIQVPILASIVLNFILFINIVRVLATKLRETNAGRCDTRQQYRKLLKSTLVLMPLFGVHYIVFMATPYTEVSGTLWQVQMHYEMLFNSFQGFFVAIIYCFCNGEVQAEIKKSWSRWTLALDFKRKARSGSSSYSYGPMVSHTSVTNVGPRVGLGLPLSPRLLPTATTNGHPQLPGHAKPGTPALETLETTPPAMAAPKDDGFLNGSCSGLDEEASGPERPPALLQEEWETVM
The experiment in a line: cAMP stimulation in COS-7 cells transiently transfected with P1R-DelNt. The class given is cell-based. As to conditions: for Emax: COS-7, at 1×10^−5, percent of maximum response of PTH(1-34) on P1R-WT. As for the experimental part:
(§1) Cell Culture. The cell line HKRK-B28 (Takasu, H., et al., J. Bone Miner. Res. 14:11-20 (1999)) was derived from the porcine kidney cell line, LLC-PK1 by stable transfection with plasmid DNA encoding the full-length P1R and expresses ˜280,000 receptors per cell. These cells, as well as COS-7 cells and SaOS-2-B10 cells, were cultured at […] in T-75 flasks ([…]) in Dulbecco's modified Eagle's medium (DMEM) supplemented with fetal bovine serum (10%), penicillin G (20 units/ml), streptomycin sulfate (20 μg/ml) and amphotericin B (0.05 μg/ml) in a humidified atmosphere containing 5% CO2. Stock solutions of EGTA/trypsin and antibiotics were from GIBCO; fetal bovine serum was from Hyclone Laboratories (Logan, Utah). COS-7 cells sub-cultured in 24-well plates were transfected with plasmid DNA (200 ng per well) encoding the wild-type human P1R or truncated human P1R deleted for residues (24-181) (Shimizu, M., et al., J. Biol. Chem. 275:21836-21843 (2000)) that was purified by cesium chloride/ethidium bromide density gradient centrifugation, and FuGENE 6 transfection reagent (Roche Indianapolis Ind.) according to the manufacturer's recommended procedure. All cells, in 24-well plates, were treated with fresh media and shifted to 33° C. for 12 to 24 h prior to assay.
(§2) cAMP Stimulation. Stimulation of cells with peptide analogs was performed in 24-well plates. Cells were rinsed with 0.5 mL of binding buffer (50 mM Tris-HCl, 100 mM NaCl, 5 mM KCl, 2 mM CaCl2, 5% heat-inactivated horse serum, 0.5% fetal bovine serum, adjusted to pH 7.5 with HCl) and treated with 200 μL of cAMP assay buffer (Delbecco's modified Eagle's medium containing 2 mM 3-isobutyl-1-methylxanthine, 1 mg/mL bovine serum albumin, 35 mM Hepes-NaOH, pH 7.4) and 100 μL of binding buffer containing varying amounts of peptide analog (final volume=300 μL). The medium was removed after incubation for 30 to 60 minutes at room temperature, and the cells were frozen on dry ice, lysed with 0.5 mL 50 mM HCl, and refrozen ([…]). The cAMP content of the diluted lysate was determined by radioimmunoassay. The EC50 response values were calculated using nonlinear regression (see below).
Data Calculation. Calculations were performed using Microsoft® Excel. […] Differences between paired data sets were statistically evaluated using a one-tailed Student's t-test, assuming unequal variances for the two sets.
(§3) The peptide PTH(1-34)([Tyr^34]hPTH(1-34)NH2)(SEQ. ID. NO. 11) and analogs containing the indicated residues at positions 6 and/or 10 were evaluated for the capacity to stimulate cAMP accumulation in COS-7 cells transiently transfected with either the wild-type P1R(P1R-WT) or P1R-DelNt. […]

The target of assay [2] is T2, recombinant full-length P1R (Homo sapiens, UniProt Q03431).
T2 construct: expressed in transfected cells
T2 sequence (Q03431 27-593): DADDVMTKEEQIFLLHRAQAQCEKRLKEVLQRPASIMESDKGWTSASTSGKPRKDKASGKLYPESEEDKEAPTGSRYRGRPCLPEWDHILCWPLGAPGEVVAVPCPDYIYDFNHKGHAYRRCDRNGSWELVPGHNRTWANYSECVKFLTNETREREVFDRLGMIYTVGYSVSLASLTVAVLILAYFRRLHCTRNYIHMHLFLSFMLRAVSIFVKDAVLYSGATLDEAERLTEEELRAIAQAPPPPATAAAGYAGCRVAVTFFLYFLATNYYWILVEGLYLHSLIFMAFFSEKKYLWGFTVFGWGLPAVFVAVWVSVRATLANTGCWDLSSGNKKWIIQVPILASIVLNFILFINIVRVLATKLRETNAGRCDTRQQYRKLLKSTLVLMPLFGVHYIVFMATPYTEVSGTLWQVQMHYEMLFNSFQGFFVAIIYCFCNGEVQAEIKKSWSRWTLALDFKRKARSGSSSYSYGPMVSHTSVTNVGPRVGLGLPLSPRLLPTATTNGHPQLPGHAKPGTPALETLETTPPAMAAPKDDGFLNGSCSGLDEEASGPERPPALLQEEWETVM
The experiment in a line: cAMP stimulation in HKRK-B28 cells. The class given is cell-based. As to conditions: at 1×10^−6 M, percent of maximum response of PTH(1-34). As for the experimental part:
as §1, §2
Data Calculation. Calculations were performed using Microsoft® Excel. Nonlinear regression analyses of binding and cAMP dose-response data were performed using the four-parameter equation: yp=Min+[(Max−Min)/(1+(IC50/x)^slope)]. The Excel Solver function was utilized for parameter optimization, as described previously (Carter, P. H., et al., Endocrinology 140: 4972-4981 (1999); Bowen, W. P., and Jerman, J. C., Trends in Pharmacol. Sci. 16: 413-417 (1995)). Differences between paired data sets were statistically evaluated using a one-tailed Student's t-test, assuming unequal variances for the two sets.
The effects of installing a direct covalent linkage between the side chains of the residues at positions 6 and 10 on PTH analog function were also assessed. To do this, paired Glu^6/Lys^10 or Lys^6/Glu^10 substitutions were introduced into an otherwise non-constrained PTH(1-14) analog scaffold AlaValAlaGluIleGln LeuMetHisGlnHarAlaLysTrp-amide (SEQ. ID. NO. 11) and formed an amide bond between the carboxylate side chain group of the introduced glutamate residue and the amino side chain group of the introduced lysine residue. For controls, a portion of each Glu/Lys- or Lys/Glu-substituted PTH(1-14) analog was preserved in the non-bridged form. The four peptides: [Glu^6, Lys^10]PTH(1-14)(linear)(SEQ. ID. NO. 24), [(Glu^6,Lys^10)lac.]PTH(1-14) cyclized via a 6-10 lactam bridge)(SEQ. ID. NO. 3), [Lys^6, Glu^10]PTH(1-14)(SEQ. ID. NO. 25), and [(Lys^6, Glu^10)lac.]PTH(1-14)(SEQ. ID. NO. 26) were first compared at a single dose of 10 μM for the capacity to stimulate cAMP formulation in HKRK-B28 cells, an LLC-PK1-derived cell line that expresses the recombinant full-length P1R at a moderate level (˜280,000 receptors per cell). […]

The target of another assay is T3, wild-type human P1R (Homo sapiens, UniProt Q03431).
T3 construct: expressed in transfected cells; host or cells: COS-7 (transient transfection, FuGENE 6)
T3 sequence (Q03431 27-593): T2 sequence (Q03431 27-593)
The experiment in a line: cAMP stimulation in COS-7 cells transiently transfected with P1R-WT. The class given is cell-based. As to conditions: at 1×10^−6M, percent of maximum response of PTH(1-34) on P1R-WT. As to the method:
as §1
cAMP Stimulation. Stimulation of cells with peptide analogs was performed in 24-well plates. […] The cAMP content of the diluted lysate was determined by radioimmunoassay. The EC50 response values were calculated using nonlinear regression (see below).
Data Calculation. […] Differences between paired data sets were statistically evaluated using a one-tailed Student's t-test, assuming unequal variances for the two sets.
as §3

For another assay, the target named is T4, P1R (Homo sapiens, UniProt Q03431).
T4 construct: expressed in transfected cells
T4 sequence (Q03431 27-593): T2 sequence (Q03431 27-593)
The settings on record: cAMP-signaling, literature (Luck et al. 1999); cited from earlier work.

One may read the Emax as the maximal effect, on the per cent scale that the assay sets. The substance “H-SVSEIALMHALGKHLNSMERVEWLRKKLQDVHNY-NH2 [[Ala^6,10]PTH(1-34)]” came in with an Emax in assay [1] of 44 ± 2%. Further, the “cAMP-signaling potency (in words)” value in assay [1] (COS-7 cells expressing P1R-DelNt) is on record as “as potent as PTH(1-34)”. Further, the figures for the Emax at 1 µM (in assay [2]; at wild-type human P1R) were 107 ± 8% and 121 ± 7%, respectively.

Substance “H-SVSEIALMHNLGKHLNSMERVEWLRKKLQDVHNY-NH2 [[Ala^6]PTH(1-34)]” registered an Emax in assay [1] of 4.5 ± 0.9%. For the same substance, the Emax at 1 µM turned out to be 105 ± 10% in assay [2] and 104 ± 2% at wild-type human P1R.

For the substance “H-SVSEIQLMHALGKHLNSMERVEWLRKKLQDVHNY-NH2 [[Ala^10]PTH(1-34)]”, the Emax in assay [1] came to 46 ± 2%. Besides, the Emax at 1 µM in assay [2] is 106 ± 7%; on wild-type human P1R, 96 ± 4%.

Broadly, the EC50 is the concentration that produces a half-maximal response. Regarding “PTH(1-34): first 34 amino acids of PTH, literature data”, in the assay with P1R, the EC50 is approximately 2 nM.

The values are drawn from patent US7521528B2, “Conformationally constrained parathyroid hormone (PTH) analogs with lactam bridges” (The General Hospital Corporation, priority 2003, dated 2009).
